Assay results taken from US12606556B2, “TYK-2 inhibitor” (BEIGENE, LTD., priority 2020, dated 2026).

How the values were obtained:
[1] = target: T1, JAK1-JH2 protein (aa 561-860, in-house) (Homo sapiens, UniProt P23458); test: JAK1-JH2 biochemical assay (HTRF, blocking of JAK1-JH2 protein with its probe); assay type: binding; settings: 1.17 nM recombinant JAK1-JH2, Probe 2
T1 construct: JAK1-JH2 protein (aa 561-860, in-house); made in house
Protocol: Assay B: JAK1-JH2 Biochemical Assay
Compounds disclosed herein were tested for blocking of JAK1-JH2 protein (aa 561-860, in-house) with its probe in an assay based on Homogeneous Time Resolved Fluorescence. Compound dilution is done according to the following protocol: (1) Prepare 500× compounds solution in DMSO from 500 uM by 5-fold dilution, total 10 doses were included; (2) Prepare 10× compounds solution in an assay buffer containing 20 mM HEPES, pH 7.5, 10 mM MgCl2, 0.005% BSA, 2 mM DTT, 0.015% Brij-35 by transferring 1 μl serial 500× stock solution into 49 μl assay buffer. 4 μL of 1.17 nM recombinant JAK1-JH2 protein was pre-incubated with 1 μl of 10×serial dilution of compounds at room temperature for 0.5 hour. […] The HTRF signals (ex337 nm, em620 nm/665 nm) were read on BMG PHERAstar FS instrument. The inhibition percentage of JAK1 interaction with its probe in presence of increasing concentrations of compounds was calculated based on the ratio of fluorescence at 615 nm to that at 665 nm. The IC50 for each compound was derived from fitting the data to the four-parameter logistic equation by Dotmatics.

[2] = system: JAK2, TYK2/p-STAT4 (Tyr693) activated by IL-12 in NK-92 cell line; test: IL-12-JAK2, TYK2/p-STAT4 (Tyr693) inhibition cellular assay; assay type: cell-based; settings: for IC50: NK92, 0.5 h, NK-92 cells, IL-12 40 ng/ml, 30 min, read-out: Cellular assay pSTAT4/IL-12 IC50; for Cellular assay Selectivity fold (TYK2/JAK1): pSTAT4/IL-12 vs pSTAT3/IL-6 cellular IC50
Source text: Assay C: IL-12-JAK2, TYK2/p-STAT4 (Tyr693) Inhibition IC50 Cellular Assay
To evaluate the inhibition effect of compounds disclosed herein on JAK2, TYK2/p-STAT4 (Tyr693) activated by IL-12 in NK-92 cell line, NK-92 cells were collected and washed 3 times by DPBS and resuspended in MEM-α(GIBCO,Cat #12561056) with 10% FBS (Gibco, Cat #10099, Lot #1891605), without IL-2 (R&D systems,Cat #202-IL), starved overnight. Cells were collected and resuspended in 1640 medium (phenol red free, Gibco, Cat #11835-030) with 0.1% BSA, and 12.5 μl/5×10^4/well cell suspension were seeded to the 96-well plate (Corning, Cat #3799). Then cells were treated with compounds diluted in 0.2% DMSO 1640 medium, at 37° C., 1 h. Dilution is done according to the following protocol: (1) make 500× compounds solution in DMSO from 5 mM by 4-fold dilution, total 8 doses were included; (3) make 2× compounds solution in assay medium by transferring 0.5 μl serial 500× stock solution into 125 μl assay medium; (4) 15 μl of 2× serial solution is added to cells and incubate at 37° C. for 1 h, the final compound conc. is 10000,2500,625,156.25,39,9.8,2.4 and 0.61 nM, respectively. After 1 h, cells were treated with 2.5 μl medium containing IL-12 at 37° C. (R&D systems, Cat #219-IL-005, final conc.40 ng/ml), 30 min. Following cells were lysed with 7.5 μl lysis buffer at RT, shaking on shaker for 1 h. 10 μL of cell lysate were transferred to a PE 384-well Proxiplate detection plate, and 5 μL of pre-mixed Alphascreen beads were added to each well. Covered the plate with a plate sealer, span 1000 rpm for 1 min, mix, Incubated overnight at room temperature. Read on BMG PheraStar with Alphascreen protocol. IC 50 values were calculated by fitting dependent data to the four-parameter logistic model using dotmatics software. The assay was performed by using AlphaLISA SureFire Ultra p-STAT4 (Tyr693) Assay Kit—High Volume (PE, Cat #ALSU-PST4-A-HV).

[3] = system: JAK1/p-STAT3(Tyr705) activated by IL-6 in TF-1 cell line; test: IL-6-JAK1/p-STAT3(Tyr705) inhibition cellular assay; assay type: cell-based; settings: Homo sapiens, 0.5 h; TF-1 cells, IL-6 50 ng/ml, 30 min; read-out: Cellular assay pSTAT3/IL-6 IC50
Source text: Assay D: IL-6-JAK1/p-STAT3(Tyr705) Inhibition IC50 Cellular Assay
To evaluate the inhibition effect of compounds disclosed herein on JAK1/p-STAT3(Tyr705) activated by IL-6 in TF-1 cell line, TF-1 cells were collected and washed 3 times by DPBS and resuspended in RPMI-1640 (phenol red free, Gibco, Cat #11835-030) with 0.1% FBS (Gibco, Cat #10099, Lot #1891605), without GM-CSF(R&D systems,Cat #215-GM-050), starved overnight. Cells were collected and resuspended in 1640 medium (phenol red free, Gibco, Cat #11835-030) with 0.1% BSA, and 12.5 μl/10×10^4/well cell suspension were seeded to the 96-well plate (Corning, Cat #3799). Then cells were treated with compounds diluted in 0.2% DMSO 1640 medium, at 37° C., 1 h. Dilution is done according to the following protocol: (1) make 500× compounds solution in DMSO from 5 mM by 4-fold dilution, total 8 doses were included; (3) make 2× compounds solution in assay medium by transferring 0.5 μl serial 500× stock solution into 125 μl assay medium; (4) 15 μl of 2× solution is added to cells and incubate at 37° C. for 1 h, the final compound conc. is 10000,2500,625,156.25,39,9.8,2.4 and 0.61 nM, respectively. After 1 h, cells were treated with 2.5 μl medium containing IL-6 at 37° C. (R&D systems, Cat #206-IL-010, final conc.50 ng/ml), 30 min. Following cells were lysed with 10 μl lysis buffer at RT, shaking on shaker for 1 h. 16 μL of cell lysate were transferred to a PE 384-well HTRF detection plate, and 4 μL of pre-mixed HTRF antibodies were added to each well. Covered the plate with a plate sealer, span 1000 rpm for 1 min, mix, Incubated overnight at room temperature. Read on BMG PheraStar with HTRF protocol (337 nm-665 nm-620 nm). IC 50 values were calculated by fitting dependent data to the four-parameter logistic model using dotmatics software. The assay was performed by using HTRF Phospho-STAT3(Tyr705) Cellular Assay Kit (Cisbio, Cat #62AT3PEG).

[4] = target: T2, TYK2-JH2 (aa 575-869, in-house) protein (Homo sapiens, UniProt P29597); test: TYK2-JH2 biochemical assay (HTRF, blocking of TYK2-JH2 protein with its probe); assay type: binding; settings: for IC50: HTRF, 0.2 nM recombinant TYK2-JH2, Probe 1; for Biochemical assay Selectivity fold (TYK2/JAK1): TYK2-JH2 vs JAK1-JH2 biochemical IC50
T2 construct: TYK2-JH2 (aa 575-869, in-house) protein; made in house
T2 sequence (P29597 575-869): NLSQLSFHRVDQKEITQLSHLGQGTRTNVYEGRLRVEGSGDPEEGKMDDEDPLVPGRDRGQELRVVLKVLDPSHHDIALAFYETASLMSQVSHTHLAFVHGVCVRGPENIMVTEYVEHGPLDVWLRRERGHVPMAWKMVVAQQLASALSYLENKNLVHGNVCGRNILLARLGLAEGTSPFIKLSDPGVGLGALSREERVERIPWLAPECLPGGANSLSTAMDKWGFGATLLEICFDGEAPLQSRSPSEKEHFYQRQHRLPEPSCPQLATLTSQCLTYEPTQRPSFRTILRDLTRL
Protocol: Assay A: TYK2-JH2 Biochemical Assay
Compounds disclosed herein were tested for blocking of TYK2-JH2 (aa 575-869, in-house) protein with its probe in an assay based on Homogeneous Time Resolved Fluorescence.
Compound dilution is done according to the following protocol: (1) Prepare 500× compounds solution in DMSO from 500 uM by 5-fold dilution, total 10 doses were included; (2) Prepare 10× compounds solution in an assay buffer containing 20 mM HEPES, pH 7.5, 10 mM MgCl2, 0.005% BSA, 2 mM DTT, 0.015% Brij-35 by transferring 1 μl serial 500× stock solution into 49 μl assay buffer. 4 μl of 0.2 nM recombinant TYK2-JH2 protein was pre-incubated with 1 μl of 10×serial dilution of compounds at room temperature for 0.5 hour. Then 5 μl of 10 nM in-house Probe 1 (6-((3,5-dimethylphenyl)amino)-8-((4,26-dioxo-30-((3aS,4S,6aR)-2-oxohexahydro-1H-thieno[3,4-d]imidazol-4-yl)-7,10,13,16,19,22-hexaoxa-3,25-diazatriacontyl)amino)imidazo[1,2-b]pyridazine-3-carboxamide, KD=10 nM), 5 μl Mab Anti-6His Tb cryptate Gold (Cat: 61HI2TLB, Cisbio Bioassays) and Streptavidin-XL665(Cat: 610SAXLB, Cisobio Bioassays) mixture were added to plate and further incubated at room temperature for 1 hour. The HTRF signals (ex337 nm, em620 nm/665 nm) were read on BMG PHERAstar FS instrument. The inhibition percentage of TYK2 interaction with its probe in presence of increasing concentrations of compounds was calculated based on the ratio of fluorescence at […]. The IC50 for each compound was derived from fitting the data to the four-parameter logistic equation by Dotmatics.

T1 sequence (P23458 561-860): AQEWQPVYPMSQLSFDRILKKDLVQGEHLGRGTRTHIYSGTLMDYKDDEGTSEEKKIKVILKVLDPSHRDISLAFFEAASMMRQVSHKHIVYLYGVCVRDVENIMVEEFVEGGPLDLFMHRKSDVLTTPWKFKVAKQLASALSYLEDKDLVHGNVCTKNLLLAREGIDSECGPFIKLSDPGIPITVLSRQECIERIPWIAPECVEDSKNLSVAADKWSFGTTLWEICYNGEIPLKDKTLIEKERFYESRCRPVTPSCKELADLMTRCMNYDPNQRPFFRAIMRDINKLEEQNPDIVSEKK

**Q.** For `CNC(=O)c1nnc(NC(=O)C2CC2)cc1Nc1nc2ccc(N3CC(C)(N(C)C)C3)cn2n1` [Example E6], which IC50 [1] is on record?
**A.** 0.56 nM

**Q.** And the IC50 [2]?
**A.** 15.4 nM

**Q.** And the “Cellular assay Selectivity fold (TYK2/JAK1)” value [2]?
**A.** 106 fold

**Q.** And the IC50 [3]?
**A.** 1640 nM

**Q.** And the IC50 [4]?
**A.** 0.056 nM

**Q.** What about the “Biochemical assay Selectivity fold (TYK2/JAK1)” value [4] of the same compound?
**A.** 10 fold

**Q.** Which IC50 [1] does the source give for `CNC(=O)c1nnc(NC(=O)C2CC2)cc1Nc1nc2ccc(N3CC(c4ncn(C)n4)C3)cn2n1` [Example E7, 6-(cyclopropanecar-boxamido)-N-methyl-4-((6-(3-(1-methyl-1H-1,2,4-triazol-3-yl)azetidin-1-yl)-[1,2,4]triazolo [1,5-a]pyridin-2-yl)amino)pyridazine-3-carboxamide] here?
**A.** 0.78 nM

**Q.** And the IC50 [2]?
**A.** 47.8 nM

**Q.** And the “Cellular assay Selectivity fold (TYK2/JAK1)” value [2]?
**A.** >209 fold

**Q.** What about the IC50 [3] of the same compound?
**A.** > 10000 nM

**Q.** And the IC50 [4]?
**A.** 0.084 nM

**Q.** And the “Biochemical assay Selectivity fold (TYK2/JAK1)” value [4]?
**A.** 9 fold

**Q.** Which results are given for `CNC(=O)c1nnc(NC(=O)C2CC2)cc1Nc1nc2ccc(N3CC(C)(C)C3)cn2n1` [Example E8, 6-(cyclopropanecar-boxamido)-4-((6-(3,3-dimethylazetidin-1-yl)-[1,2,4]triazolo[1,5-a]pyridin-2-yl)amino)-N-methylpyridazine-3-carboxamide]?
**A.** IC50 [1]: 3 nM; IC50 [2]: 13.8 nM; Cellular assay Selectivity fold (TYK2/JAK1) [2]: >724 fold; IC50 [3]: > 10000 nM; IC50 [4]: 0.044 nM; Biochemical assay Selectivity fold (TYK2/JAK1) [4]: 68 fold

**Q.** Which IC50 [1] does the source give for `CNC(=O)c1nnc(NC(=O)C2CC2)cc1Nc1nc2ccc(N3CC(F)C3)cn2n1` [Example E9, 6-(cyclopropanecar-boxamido)-4-((6-(3-fluoroazetidin-1-yl)-[1,2,4]triazolo[1,5-a]pyridin-2-yl)amino)-N-methylpyridazine-3-carboxamide] here?
**A.** 2.4 nM

**Q.** What about the IC50 [2] of the same compound?
**A.** 19.6 nM

**Q.** And the “Cellular assay Selectivity fold (TYK2/JAK1)” value [2]?
**A.** >510 fold

**Q.** And the IC50 [3]?
**A.** > 10000 nM

**Q.** And the IC50 [4]?
**A.** 0.097 nM

**Q.** And the “Biochemical assay Selectivity fold (TYK2/JAK1)” value [4]?
**A.** 25 fold

**Q.** For `CNC(=O)c1nnc(NC(=O)C2CC2)cc1Nc1nc2ccc(N3CC(F)(F)C3)cn2n1` [Example E10, 6-(cyclopropanecar-boxamido)-4-((6-(3,3-difluoroazetidin-1-yl)-[1,2,4]triazolo[1,5-a]pyridin-2-yl)amino)-N-methylpyridazine-3-carboxamide], which IC50 [1] is on record?
**A.** 3 nM

**Q.** What about the IC50 [2] of the same compound?
**A.** 47 nM

**Q.** And the “Cellular assay Selectivity fold (TYK2/JAK1)” value [2]?
**A.** >212 fold

**Q.** And the IC50 [3]?
**A.** > 10000 nM

**Q.** And the IC50 [4]?
**A.** 0.15 nM

**Q.** And the “Biochemical assay Selectivity fold (TYK2/JAK1)” value [4]?
**A.** 20 fold

**Q.** How did the IC50 [1] turn out when `CNC(=O)c1nnc(NC(=O)C2CC2)cc1Nc1nc2ccc(N3CCC(N4CC(F)(F)C4)CC3)cn2n1` [Example E12, 6-(cyclopropanecar-boxamido)-4-((6-(4-(3,3-difluoroazetidin-1-yl)piperidin-1-yl)-[1,2,4]triazolo[1,5-a]pyridin-2-yl)amino)-N-methylpyridazine-3-carboxamide] was run?
**A.** 1.7 nM

**Q.** And the IC50 [2]?
**A.** 6.31 nM

**Q.** What about the “Cellular assay Selectivity fold (TYK2/JAK1)” value [2] of the same compound?
**A.** 1478 fold

**Q.** What about the IC50 [3] of the same compound?
**A.** 9930 nM

**Q.** And the IC50 [4]?
**A.** 0.024 nM

**Q.** And the “Biochemical assay Selectivity fold (TYK2/JAK1)” value [4]?
**A.** 71 fold

**Q.** What does the source list for `CNC(=O)c1nnc(NC(=O)C2CC2)cc1Nc1nc2ccc(N3CCCC(N4CC(F)(F)C4)C3)cn2n1` (stereo not drawn) [Example E13, 6-(cyclopropanecar-boxamido)-4-((6-(3-(3,3-difluoroazetidin-1-yl)piperidin-1-yl)-[1,2,4]triazolo[1,5-a]pyridin-2-yl)amino)-N-methylpyridazine-3-carboxamide]?
**A.** IC50 [1]: 2.6 nM; IC50 [2]: 15.9 nM; Cellular assay Selectivity fold (TYK2/JAK1) [2]: >629 fold; IC50 [3]: > 10000 nM; IC50 [4]: 0.047 nM; Biochemical assay Selectivity fold (TYK2/JAK1) [4]: 55 fold

**Q.** How did the IC50 [1] turn out when `CNC(=O)c1nnc(NC(=O)C2CC2)cc1Nc1nc2ccc(N3CC(N4CCCCC4)C3)cn2n1` [Example E14, 6-(cyclopropanecar-boxamido)-N-methyl-4-((6-(3-(piperidin-1-yl)azetidin-1-yl)-[1,2,4]triazolo [1,5-a]pyridin-2-yl)amino) pyridazine-3-carboxamide] was run?
**A.** 1.8 nM

**Q.** And the IC50 [2]?
**A.** 42.6 nM

**Q.** And the “Cellular assay Selectivity fold (TYK2/JAK1)” value [2]?
**A.** >234 fold

**Q.** What about the IC50 [3] of the same compound?
**A.** > 10000 nM

**Q.** What about the IC50 [4] of the same compound?
**A.** 0.11 nM

**Q.** And the “Biochemical assay Selectivity fold (TYK2/JAK1)” value [4]?
**A.** 16 fold
